# In patent US7772253B2 (Hoffman-La Roche Inc., priority 2005, dated 2010):
# Target: T1, human subtype 5 somatostatin receptor (Homo sapiens, UniProt P35346)
# T1 construct: host or cells: CHO cell line, stably transfected; membranes
# Experiment: Binding of 125-I-labeled 11-Tyr somatostatin-14 tracer to membranes of CHO cells expressing SSTR5
# Settings: CHO cell membranes, Ki calculated from IC50 by Cheng-Prussoff equation
# Protocol: A CHO cell line stably transfected with a plasmid encoding the human subtype 5 somatostatin receptor (GenBank accession number D16827) was obtained from Euroscreen. Cells were cultured and used for binding and functional assays.
# Membranes of these cells were prepared by sonication in the presence of protease inhibitors and subsequent fractionating centrifugation. The protein concentration in the membrane preparation was determined using a commercial kit (BCA kit, Pierce, USA). Membranes were stored at −80° C. until use. After thawing, membranes were diluted in assay buffer (50 mM TRIS-HCl at pH 7.4, 5 mM MgCl2 and 0.20% BSA (bovine serum albumine)) and subjected to dounce homogenization.
# For binding studies, 0.1 ml membrane suspension, corresponding to app. 6×10^−15 mol receptor, was incubated for 1 hour at room temperature with 0.05 nM ^125-I-labeled tracer (11-Tyr somatostatin-14, Perkin-Elmer) and either test compounds in varying concentrations or, for the determination of non-specific binding, 0.001 mM non-labeled somatostatin-14 (Sigma-Aldrich, Buchs, Switzerland). The incubation was stopped by filtration through GF/B glassfiber filters (Unifilter, Perkin-Elmer) and washing with ice-cold wash buffer (50 mM Tris-HCl at pH 7.4). The bound radioactivity was measured after application of a scintillation cocktail (Microscint 40, Perkin-Elmer) and expressed as disintegrations per minute (dpm).
# The receptor concentration was determined in a prior saturation experiment where a fixed, arbitrary amount of membranes was incubated with a concentration range of radio-labeled tracer. This allows estimating the total number of specific binding sites per amount of protein (i.e. Bmax), typically between 1 and 5 pmol/mg.
# The concentration of the test compound required to result in half maximal inhibition of binding of the radio-labeled tracer (IC50) was estimated from a concentration-versus-dpm graph. The binding affinity (Ki) was calculated from the IC50 by applying the Cheng-Prussoff equation for single binding sites.
# T1 sequence (P35346 whole entry): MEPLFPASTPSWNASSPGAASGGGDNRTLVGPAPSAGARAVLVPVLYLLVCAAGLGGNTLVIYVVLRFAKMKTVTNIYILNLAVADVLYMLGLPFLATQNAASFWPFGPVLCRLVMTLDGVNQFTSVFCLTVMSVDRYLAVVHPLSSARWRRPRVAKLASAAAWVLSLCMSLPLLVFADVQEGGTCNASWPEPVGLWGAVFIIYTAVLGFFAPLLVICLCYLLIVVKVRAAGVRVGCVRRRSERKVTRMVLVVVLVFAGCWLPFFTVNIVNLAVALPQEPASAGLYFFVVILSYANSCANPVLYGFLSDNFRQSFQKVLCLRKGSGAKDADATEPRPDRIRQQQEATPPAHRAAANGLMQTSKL
row,Ki [nM],Compound
1,38,"CCOc1cc(CN2CCC(NC(=O)c3cncc(C)c3)CC2)ccc1Cl [Example 30, N-[1-(4-Chloro-3-ethoxy-benzyl)piperidin-4-yl]-5-methyl-nicotinamide]"
2,19,"CCOC(=O)c1c(OCC)cc(CN2CCC(NC(=O)c3cncc(C)c3)CC2)cc1OCC [Example 35, N-[1-(3,5-Diethoxy-4-ethoxycarbonyl-benzyl)piperidin-4-yl]-5-methyl-nicotinamide]"

row,Compound,Ki [nM]
1,CCOc1cc(CN2CCC(NC(=O)c3cccc(C(N)=O)c3)CC2)ccc1Cl [Example 6],126
